Here are results for 26 molecules from patent US20230192700A1, “PYRAZOLOPYRAZINES ACTING ON CANCERS VIA INHIBITION OF CDK12” (Bayer Aktiengesellschaft, priority 2020, published 2023).

For one test, the target named is T1, CDK2/CyclinE (Homo sapiens, UniProt P24941).
T1 construct: GST; purchased ProQinase GmbH (Freiburg, Germany); host or cells: insect cells (Sf9)
In words: CDK2/CycE kinase assay (TR-FRET). As to conditions: 2 mM ATP (high ATP); median; read-out: CDK2/CyclinE, 2 mM ATP (high ATP) IC50 - [mol/l] (median). Type of test: biochemical. In outline: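 GST-tagged human CDK2/CycE (Sf9-expressed, ~10 ng/mL) was preincubated 15 min with compound, then run 25 min at 22 °C with 2 mM ATP and 0.75 μM biotinylated peptide, pH 8.0. Phospho-substrate was detected by TR-FRET (anti-RB pSer807/811, Eu-anti-mouse, streptavidin-XL665), 665/620 nm ratio, normalised to no-inhibitor and no-enzyme controls.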
Background: In TR-FRET formats the signal depends on donor and acceptor labels being close together.

A further test concerns the target T2, CDK9/CyclinT1 (Homo sapiens, UniProt P50750).
T2 construct: Recombinant full-length His-tagged human CDK9 and CycT1; His-tag; purchased Life Technologies PV4131; host or cells: insect cells
In words: CDK9/CycT1 high ATP kinase assay (TR-FRET). Type of test: biochemical. As to conditions: 2 mM ATP (high ATP); median; read-out: CDK9/CyclinT1, 2 mM ATP (high ATP) IC50 - [mol/l] (median). In outline:
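Full-length His-tagged human CDK9/CycT1 (insect cell) at ~0.5 µg/mL, preincubated with compound 15 min at 22 °C in Tris pH 8.0 buffer, then reacted 25 min with 2 mM ATP and 0.75 µM biotinylated peptide (final). Phospho-substrate detected by TR-FRET (anti-RB pSer807/811, Eu/XL665), 665/620 nm ratio normalised to no-inhibitor and no-enzyme controls.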

T2 sequence (P50750 whole entry): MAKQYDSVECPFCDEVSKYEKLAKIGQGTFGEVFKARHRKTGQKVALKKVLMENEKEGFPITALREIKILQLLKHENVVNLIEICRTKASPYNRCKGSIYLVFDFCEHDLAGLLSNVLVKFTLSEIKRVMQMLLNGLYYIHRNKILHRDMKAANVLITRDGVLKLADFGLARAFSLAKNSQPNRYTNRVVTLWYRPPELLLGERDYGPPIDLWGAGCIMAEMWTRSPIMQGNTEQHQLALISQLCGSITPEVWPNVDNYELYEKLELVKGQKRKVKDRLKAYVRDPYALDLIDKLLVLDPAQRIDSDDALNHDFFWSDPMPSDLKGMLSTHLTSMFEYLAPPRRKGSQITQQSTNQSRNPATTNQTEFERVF
T2 sequence (O60563 whole entry partner): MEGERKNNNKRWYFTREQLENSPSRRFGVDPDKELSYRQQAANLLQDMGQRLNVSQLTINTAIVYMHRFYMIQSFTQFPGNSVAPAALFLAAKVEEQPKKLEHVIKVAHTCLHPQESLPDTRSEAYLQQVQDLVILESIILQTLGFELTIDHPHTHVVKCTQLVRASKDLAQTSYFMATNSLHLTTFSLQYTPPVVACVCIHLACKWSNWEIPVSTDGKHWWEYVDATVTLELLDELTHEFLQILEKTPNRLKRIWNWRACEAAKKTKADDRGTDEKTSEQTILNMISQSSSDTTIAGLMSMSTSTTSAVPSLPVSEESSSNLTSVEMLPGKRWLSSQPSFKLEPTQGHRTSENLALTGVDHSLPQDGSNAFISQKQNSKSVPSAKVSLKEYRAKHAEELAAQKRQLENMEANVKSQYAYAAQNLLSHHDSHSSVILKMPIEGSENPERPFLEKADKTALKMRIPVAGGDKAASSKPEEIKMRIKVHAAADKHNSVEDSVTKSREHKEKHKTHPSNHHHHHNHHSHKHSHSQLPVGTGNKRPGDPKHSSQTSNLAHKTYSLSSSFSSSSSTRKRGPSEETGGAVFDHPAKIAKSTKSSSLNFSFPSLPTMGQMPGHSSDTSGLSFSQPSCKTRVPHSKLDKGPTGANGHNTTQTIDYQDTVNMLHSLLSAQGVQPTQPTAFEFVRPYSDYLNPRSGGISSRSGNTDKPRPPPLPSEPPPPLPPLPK

Consider `c1ccc2[nH]c(CNc3nn(C4COC4)c4nc(C5CC5)cnc34)nc2c1` [Example 55, N-[(1H-benzimidazol-2-yl)methyl]-6-cyclopropyl-1-(oxetan-3-yl)-1H-pyrazolo[3,4-b]pyrazin-3-amine], for which the IC50 on CDK2/CyclinE and at CDK9/CyclinT1 was more than 20 µM each time.

For the molecule `CN1CCC(n2nc(NCc3nc4cc(F)c(F)cc4[nH]3)c3ncc(C4CC4)nc32)CC1` [Example 30, 6-cyclopropyl-N-[(5,6-difluoro-1H-benzimidazol-2-yl)methyl]-1-(1-methylpiperidin-4-yl)-1H-pyrazolo[3,4-b]pyrazin-3-amine], the IC50 at CDK2/CyclinE and at CDK9/CyclinT1 was more than 20 µM each time.

For the molecule `CN1CCC(n2nc(NCc3nc4ccccc4[nH]3)c3ncc(C4CC4)nc32)C1` (racemic) [Example 35, (±)-N-[(1H-benzimidazol-2-yl)methyl]-6-cyclopropyl-1-(1-methylpyrrolidin-3-yl)-1H-pyrazolo[3,4-b]pyrazin-3-amine], the IC50 on CDK2/CyclinE and on CDK9/CyclinT1 was more than 20 µM each time.

Turning to `Fc1ccc2[nH]c(CNc3nn(C4CCOCC4)c4nc(C5CC5)cnc34)nc2c1F` [Example 32, 6-cyclopropyl-N-[(4,5-difluoro-1H-benzimidazol-2-yl)methyl]-1-(oxan-4-yl)-1H-pyrazolo[3,4-b]pyrazin-3-amine], the IC50 on CDK2/CyclinE and at CDK9/CyclinT1 was more than 20 µM throughout.

Regarding `CN1CCC(n2nc(NCc3nc4ccccc4[nH]3)c3ncc(C4CC4)nc32)CC1` [Example 1, N-[(1H-benzimidazol-2-yl)methyl]-6-cyclopropyl-1-(1-methylpiperidin-4-yl)-1H-pyrazolo[3,4-b]pyrazin-3-amine], the IC50 on CDK2/CyclinE and on CDK9/CyclinT1 was more than 20 µM in each case.

Take `c1ccc2[nH]c(CNc3nn(CC4CCC4)c4nc(C5CC5)cnc34)nc2c1` [Example 75, N-[(1H-benzimidazol-2-yl)methyl]-1-(cyclobutylmethyl)-6-cyclopropyl-1H-pyrazolo[3,4-b]pyrazin-3-amine]: the IC50 on CDK2/CyclinE and at CDK9/CyclinT1 was more than 20 µM in each case.

In the case of `CN1CCC(n2nc(NCc3nc4ccccc4[nH]3)c3ncc(C4CC4)nc32)C1` (single isomer, unassigned) [Example 79, (−) or (+)-N-[(1H-benzimidazol-2-yl)methyl]-6-cyclopropyl-1-(1-methylpyrrolidin-3-yl)-1H-pyrazolo[3,4-b]pyrazin-3-amine], the IC50 on CDK2/CyclinE and on CDK9/CyclinT1 was more than 20 µM in each case.

Consider `CC1CC(n2nc(NCc3nc4ccccc4[nH]3)c3ncc(C4CC4)nc32)CCN1C` (racemic) [Example 41, (±)-cis/trans-N-[(1H-benzimidazol-2-yl)methyl]-6-cyclopropyl-1-(1,2-dimethylpiperidin-4-yl)-1H-pyrazolo[3,4-b]pyrazin-3-amine], for which the IC50 at CDK2/CyclinE and at CDK9/CyclinT1 was more than 20 µM each time.

Consider `CN1CCC(n2nc(NCc3nc4cc(Cl)ccc4[nH]3)c3ncc(C4CC4)nc32)CC1` [Example 22, N-[(5-chloro-1H-benzimidazol-2-yl)methyl]-6-cyclopropyl-1-(1-methylpiperidin-4-yl)-1H-pyrazolo[3,4-b]pyrazin-3-amine], for which the IC50 at CDK2/CyclinE and at CDK9/CyclinT1 was more than 20 µM in each case.

As for `Fc1ccc2[nH]c(CNc3nn(C4CCOCC4)c4nc(C5CC5)cnc34)nc2c1` [Example 53, 6-cyclopropyl-N-[(5-fluoro-1H-benzimidazol-2-yl)methyl]-1-(oxan-4-yl)-1H-pyrazolo[3,4-b]pyrazin-3-amine], the IC50 at CDK2/CyclinE and on CDK9/CyclinT1 was more than 20 µM in each case.

With `COCCC(C)n1nc(NCc2nc3ccccc3[nH]2)c2ncc(C3CC3)nc21` (single isomer, unassigned; (+)) [Example 59, (+)-N-[(1H-benzimidazol-2-yl)methyl]-6-cyclopropyl-1-[4-methoxybutan-2-yl]-1H-pyrazolo[3,4-b]pyrazin-3-amine], the IC50 on CDK2/CyclinE and at CDK9/CyclinT1 was more than 20 µM each time.

Take `Cc1c(F)ccc2[nH]c(CNc3nn(C4CCN(C)CC4)c4nc(C5CC5)cnc34)nc12` [Example 26, 6-cyclopropyl-N-[(5-fluoro-4-methyl-1H-benzimidazol-2-yl)methyl]-1-(1-methylpiperidin-4-yl)-1H-pyrazolo[3,4-b]pyrazin-3-amine]: the IC50 at CDK2/CyclinE and at CDK9/CyclinT1 was more than 20 µM in each case.

For the molecule `CC1(C)CC(n2nc(NCc3nc4ccccc4[nH]3)c3ncc(C4CC4)nc32)CC(C)(C)O1` [Example 52, N-[(1H-benzimidazol-2-yl)methyl]-6-cyclopropyl-1-(2,2,6,6-tetramethyloxan-4-yl)-1H-pyrazolo[3,4-b]pyrazin-3-amine], the IC50 on CDK2/CyclinE and at CDK9/CyclinT1 was more than 20 µM throughout.

`CN1CCC(n2nc(NCc3nc4c(Cl)c(F)ccc4[nH]3)c3ncc(C4CC4)nc32)CC1` [Example 31, N-[(4-chloro-5-fluoro-1H-benzimidazol-2-yl)methyl]-6-cyclopropyl-1-(1-methylpiperidin-4-yl)-1H-pyrazolo[3,4-b]pyrazin-3-amine]: the IC50 on CDK2/CyclinE and on CDK9/CyclinT1 was more than 20 µM in each case.

Consider `CN1CCC(n2nc(NCc3nc4cc(C(F)(F)F)ccc4[nH]3)c3ncc(C4CC4)nc32)CC1` [Example 25, 6-cyclopropyl-1-(1-methylpiperidin-4-yl)-N-{[5-(trifluoromethyl)-1H-benzimidazol-2-yl]methyl}-1H-pyrazolo[3,4-b]pyrazin-3-amine], for which the IC50 at CDK2/CyclinE and on CDK9/CyclinT1 was more than 20 µM in each case.

As to `FC1(F)CCC(n2nc(NCc3nc4ccccc4[nH]3)c3ncc(C4CC4)nc32)CC1` [Example 36, N-[(1H-benzimidazol-2-yl)methyl]-6-cyclopropyl-1-(4,4-difluorocyclohexyl)-1H-pyrazolo[3,4-b]pyrazin-3-amine], the IC50 at CDK2/CyclinE and on CDK9/CyclinT1 was more than 20 µM throughout.

Turning to `c1ccc2[nH]c(CNc3nn(C4CC5(COC5)C4)c4nc(C5CC5)cnc34)nc2c1` [Example 54, N-[(1H-benzimidazol-2-yl)methyl]-6-cyclopropyl-1-(2-oxaspiro[3.3]heptan-6-yl)-1H-pyrazolo[3,4-b]pyrazin-3-amine], the IC50 on CDK2/CyclinE and on CDK9/CyclinT1 was more than 20 µM throughout.

Consider `CC(C)(C)OC(=O)N1CCC(n2nc(NCc3nc4ccccc4[nH]3)c3ncc(C4CC4)nc32)CC1` [Example 11, tert-butyl 4-(3-{[(1H-benzimidazol-2-yl)methyl]amino}-6-cyclopropyl-1H-pyrazolo[3,4-b]pyrazin-1-yl)piperidine-1-carboxylate], for which the IC50 at CDK2/CyclinE and at CDK9/CyclinT1 was more than 20 µM each time.

For `CC(C)(O)CCn1nc(NCc2nc3ccccc3[nH]2)c2ncc(C3CC3)nc21` [Example 76, 4-(3-{[(1H-benzimidazol-2-yl)methyl]amino}-6-cyclopropyl-1H-pyrazolo[3,4-b]pyrazin-1-yl)-2-methylbutan-2-ol], the IC50 on CDK2/CyclinE and at CDK9/CyclinT1 was more than 20 µM throughout.

As to `O[C@H]1C[C@H](Cn2nc(NCc3nc4ccccc4[nH]3)c3ncc(C4CC4)nc32)C1` [Example 70, trans-3-[(3-{[(1H-benzimidazol-2-yl)methyl]amino}-6-cyclopropyl-1H-pyrazolo[3,4-b]pyrazin-1-yl)methyl]cyclobutan-1-ol], the IC50 at CDK2/CyclinE and at CDK9/CyclinT1 was more than 20 µM each time.

Consider `CN(C)CCn1nc(NCc2nc3ccccc3[nH]2)c2ncc(C3CC3)nc21` [Example 68, N-[(1H-benzimidazol-2-yl)methyl]-6-cyclopropyl-1-[2-(dimethylamino)ethyl]-1H-pyrazolo[3,4-b]pyrazin-3-amine], for which the IC50 on CDK2/CyclinE and on CDK9/CyclinT1 was more than 20 µM throughout.

Regarding `CN1CCCC(n2nc(NCc3nc4ccccc4[nH]3)c3ncc(C4CC4)nc32)CC1` (single isomer, unassigned) [Example 37, (+) or (−)-N-[(1H-benzimidazol-2-yl)methyl]-6-cyclopropyl-1-[(4R*)-1-methylazepan-4-yl]-1H-pyrazolo[3,4-b]pyrazin-3-amine], the IC50 at CDK2/CyclinE and at CDK9/CyclinT1 was more than 20 µM each time.

As for `CC1COCCC1n1nc(NCc2nc3ccccc3[nH]2)c2ncc(C3CC3)nc21` (racemic) [Example 42, (±)-cis/trans-N-[(1H-benzimidazol-2-yl)methyl]-6-cyclopropyl-1-(3-methyloxan-4-yl)-1H-pyrazolo[3,4-b]pyrazin-3-amine], the IC50 at CDK2/CyclinE and at CDK9/CyclinT1 was more than 20 µM throughout.

Consider `CN1CCC(n2nc(NCc3nc4cc(F)ccc4[nH]3)c3ncc(C4CC4)nc32)CC1` [Example 4, 6-cyclopropyl-N-[(5-fluoro-1H-benzimidazol-2-yl)methyl]-1-(1-methylpiperidin-4-yl)-1H-pyrazolo[3,4-b]pyrazin-3-amine], for which the IC50 at CDK2/CyclinE and at CDK9/CyclinT1 was more than 20 µM throughout.

Consider `CN1CCC(n2nc(NCc3nc4c(F)c(F)ccc4[nH]3)c3ncc(C4CC4)nc32)CC1` [Example 9, 6-cyclopropyl-N-[(4,5-difluoro-1H-benzimidazol-2-yl)methyl]-1-(1-methylpiperidin-4-yl)-1H-pyrazolo[3,4-b]pyrazin-3-amine], for which the IC50 at CDK2/CyclinE and on CDK9/CyclinT1 was more than 20 µM each time.

With `Cc1cnc2c(NCc3nc4ccccc4[nH]3)nn(C3CCN(C)CC3)c2n1` [Example 77, N-[(1H-benzimidazol-2-yl)methyl]-6-methyl-1-(1-methylpiperidin-4-yl)-1H-pyrazolo[3,4-b]pyrazin-3-amine], the IC50 on CDK2/CyclinE and at CDK9/CyclinT1 was more than 20 µM in each case.
